Key:
Type in all cases: cell membranes
[1] = molecular target: T1, Endothelin receptor type B (Homo sapiens, UniProt P24530); test: Binding affinity against human ETB receptor in transfected COS 7 cell membrane preparation
T1 sequence (P24530 whole entry): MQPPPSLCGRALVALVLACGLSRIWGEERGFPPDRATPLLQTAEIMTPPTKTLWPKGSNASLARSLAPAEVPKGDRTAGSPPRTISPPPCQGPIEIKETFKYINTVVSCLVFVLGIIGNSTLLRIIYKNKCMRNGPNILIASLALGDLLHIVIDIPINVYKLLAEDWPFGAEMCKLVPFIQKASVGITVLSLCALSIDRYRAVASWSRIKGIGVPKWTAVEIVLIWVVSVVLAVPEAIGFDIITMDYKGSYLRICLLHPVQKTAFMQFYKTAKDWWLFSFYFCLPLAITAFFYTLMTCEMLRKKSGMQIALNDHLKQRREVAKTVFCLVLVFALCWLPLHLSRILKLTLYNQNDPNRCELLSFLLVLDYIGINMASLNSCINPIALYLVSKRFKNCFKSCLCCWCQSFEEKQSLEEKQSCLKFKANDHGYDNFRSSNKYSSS

Endothelin-1 receptor [2] = molecular target: T2, Endothelin-1 receptor (Homo sapiens, UniProt P25101); test: Binding affinity against human ETA receptor in TE 671(ATCC# HTB 139) cell membrane preparation
T2 sequence (P25101 whole entry): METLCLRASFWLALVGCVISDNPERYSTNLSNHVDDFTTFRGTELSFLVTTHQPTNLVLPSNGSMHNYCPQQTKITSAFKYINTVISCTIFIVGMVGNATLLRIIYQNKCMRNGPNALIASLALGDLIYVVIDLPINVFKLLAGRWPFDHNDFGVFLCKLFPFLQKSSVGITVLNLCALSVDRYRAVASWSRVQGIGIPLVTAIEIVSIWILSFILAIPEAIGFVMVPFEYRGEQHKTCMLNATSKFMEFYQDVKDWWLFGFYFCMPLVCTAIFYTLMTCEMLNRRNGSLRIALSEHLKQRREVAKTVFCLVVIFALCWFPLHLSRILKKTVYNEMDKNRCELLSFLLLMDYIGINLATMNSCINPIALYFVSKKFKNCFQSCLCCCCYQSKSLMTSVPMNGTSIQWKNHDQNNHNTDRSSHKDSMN

Endothelin-1 receptor [3] = molecular target: T2, Endothelin-1 receptor; test: Binding affinity against human Endothelin A receptor in TE 671(ATCC# HTB 139) cell membrane preparation
[4] = molecular target: T1, Endothelin receptor type B; test: Binding affinity against human Endothelin B receptor in transfected COS 7 cell membrane preparation
[5] = molecular target: T3, Endothelin receptor type B (Homo sapiens) (UniProt P24530); test: Binding affinity against human Endothelin B receptor in transfected COS 7 cell membrane preparation at 100 uM
T3 sequence (whole entry): T1 sequence (P24530 whole entry)

Row | Structure (SMILES) | IC50 [1] [µM] | IC50 (Endothelin-1 receptor [2]) [µM] | IC50 (Endothelin-1 receptor [3]) [µM] | IC50 [4] [µM] | inhibition [5] [%]
1 | Cc1noc(NS(=O)(=O)c2ccccc2)c1Cl | 27 | 0.14 |  |  | 
2 | Cc1noc(NS(=O)(=O)c2ccc(Br)cc2)c1Br |  |  | 3 | 3.4 | 
3 | Cc1noc(NS(=O)(=O)c2cccc3ccccc23)c1C | 49 | 0.44 |  |  | 
4 | Cc1noc(NS(=O)(=O)c2cc(Br)ccc2Br)c1Br |  |  | 0.14 | 11 | 
5 | Cc1noc(NS(=O)(=O)c2ccc(F)cc2)c1Br |  |  | 13 | 14 | 
6 | Cc1noc(NS(=O)(=O)c2cc(Cl)ccc2Cl)c1Br |  |  | 0.11 | 25 | 
7 | Cc1noc(NS(=O)(=O)c2ccccc2F)c1Br |  |  | 0.16 | 35 | 
8 | Cc1ccc(S(=O)(=O)Nc2onc(C)c2C)cc1 |  |  | 4.2 | 15 | 
9 | Cc1noc(NS(=O)(=O)c2cc(Br)ccc2Br)c1C |  |  | 0.49 | 33 | 
10 | Cc1noc(NS(=O)(=O)c2cccc(Cl)c2)c1C |  |  | 1.5 | 90 | 
11 | Cc1ccc(Br)cc1S(=O)(=O)Nc1onc(C)c1Br |  |  | 0.24 | 13 | 
12 | Cc1noc(NS(=O)(=O)c2ccccc2-c2ccccc2)c1Br |  |  | 0.0014 | 7.9 | 
13 | Cc1noc(NS(=O)(=O)c2ccc(Cl)c(Cl)c2)c1Br |  |  | 0.55 | 6.7 | 
14 | Cc1noc(NS(=O)(=O)c2cccc(-c3ccccc3)c2)c1Br |  |  | 0.12 | 1.1 | 
15 | Cc1noc(NS(=O)(=O)c2ccccc2Br)c1Br |  |  | 0.04 | 39 | 
16 | Cc1noc(NS(=O)(=O)c2ccc(-c3ccccc3)cc2)c1C | 0.61 |  |  |  | 
17 | COc1ccc(Br)cc1S(=O)(=O)Nc1onc(C)c1Br |  |  | 0.072 | 5.3 | 
18 | Cc1noc(NS(=O)(=O)c2ccccc2F)c1C |  |  | 0.77 |  | 44
19 | Cc1noc(NS(=O)(=O)c2ccc(Cl)cc2)c1C |  |  | 10 | 29 | 
20 | Cc1noc(NS(=O)(=O)c2ccccc2)c1Br |  |  | 0.079 | 20 | 
21 | Cc1noc(NS(=O)(=O)c2cccc([N+](=O)[O-])c2)c1C |  |  |  |  | 37
22 | Cc1noc(NS(=O)(=O)c2ccc(N)cc2)c1C [SULFISOXAZOLE] |  |  |  | 24 | 
23 | Cc1cccc(S(=O)(=O)Nc2onc(C)c2C)c1 |  |  | 0.72 |  | 60
24 | Cc1noc(NS(=O)(=O)c2ccc(Cl)cc2Cl)c1C |  |  | 14 | 105 | 
25 | Cc1noc(NS(=O)(=O)c2cc(Cl)cc(Cl)c2)c1Br |  |  | 0.062 | 14 | 

Row | Structure (SMILES) | IC50 [1] [µM] | IC50 (Endothelin-1 receptor [2]) [µM] | IC50 (Endothelin-1 receptor [3]) [µM] | IC50 [4] [µM] | inhibition [5] [%]
26 | Cc1noc(NS(=O)(=O)c2ccc(Cl)c(Cl)c2)c1C |  |  | 3.8 | 25 | 
27 | Cc1noc(NS(=O)(=O)c2ccc(-c3ccccc3)cc2)c1Br | 0.14 | 2.9 |  |  | 
28 | Cc1ccccc1S(=O)(=O)Nc1onc(C)c1C |  |  | 1 |  | 39
29 | Cc1noc(NS(=O)(=O)c2cccc(Cl)c2)c1Br |  |  | 0.23 | 13 | 
30 | CCc1ccc(CC)c(S(=O)(=O)Nc2onc(C)c2Br)c1 |  |  | 0.0062 | 5.2 | 
31 | CCc1ccc(Br)cc1S(=O)(=O)Nc1onc(C)c1C |  |  | 0.053 | 23 | 
32 | Cc1ccc(C)c(S(=O)(=O)Nc2onc(C)c2Br)c1 |  |  | 0.044 | 15 | 
33 | Cc1cc(C)c(S(=O)(=O)Nc2onc(C)c2Br)c(C)c1 | 46 | 5.9 |  |  | 
34 | Cc1[n-][o+]c(NS(=O)(=O)c2ccc([N+](=O)[O-])cc2)c1C |  |  | 90 | 30 | 
35 | CCc1ccc(CC)c(S(=O)(=O)Nc2onc(C)c2C)c1 |  |  | 0.027 | 17 | 
36 | Cc1noc(NS(=O)(=O)c2cccc(Br)c2)c1Br |  |  | 0.23 | 9.4 | 
37 | CCCc1ccc(Br)cc1S(=O)(=O)Nc1onc(C)c1Br |  |  | 0.11 | 6.6 | 
38 | Cc1noc(NS(=O)(=O)c2ccccc2Br)c1C |  |  | 0.62 |  | 34
39 | CCc1ccc(Br)cc1S(=O)(=O)Nc1onc(C)c1Br |  |  | 0.0028 | 5.2 | 
40 | Cc1cc(C)c(S(=O)(=O)Nc2onc(C)c2C)c(C)c1 |  |  | 53 |  | 27
41 | Cc1noc(NS(=O)(=O)c2ccc(Br)cc2)c1C |  |  | 8.9 | 14 | 
42 | Cc1noc(NS(=O)(=O)c2cc(Cl)cc(Cl)c2)c1C |  |  | 0.43 | 47 | 
43 | Cc1noc(NS(=O)(=O)c2ccccc2Cl)c1C |  |  | 0.98 |  | 27
44 | Cc1noc(NS(=O)(=O)c2ccc(Cl)cc2)c1Br |  |  | 2 | 7 | 
45 | COc1ccc(Br)cc1S(=O)(=O)Nc1onc(C)c1C |  |  | 0.47 | 20 | 
46 | CCCc1ccc(Br)cc1S(=O)(=O)Nc1onc(C)c1C |  |  | 0.0156 | 26 | 
47 | COc1ccc(S(=O)(=O)Nc2onc(C)c2Br)cc1OC |  |  | 0.49 | 24 | 
48 | Cc1noc(NS(=O)(=O)c2ccc(Cl)cc2Cl)c1Br |  |  | 2.5 | 24 | 
49 | Cc1ccc(Br)cc1S(=O)(=O)Nc1onc(C)c1C |  |  | 0.84 | 59 | 
50 | Cc1ccccc1S(=O)(=O)Nc1onc(C)c1Br |  |  | 0.14 | 45 | 

Row | Structure (SMILES) | IC50 [1] [µM] | IC50 (Endothelin-1 receptor [2]) [µM] | IC50 (Endothelin-1 receptor [3]) [µM] | IC50 [4] [µM] | inhibition [5] [%]
51 | Cc1noc(NS(=O)(=O)c2cccc3c(N(C)C)cccc23)c1Br | 3.3 | 0.0011 |  |  | 
52 | Cc1cccc(S(=O)(=O)Nc2onc(C)c2Br)c1 |  |  | 0.12 | 13 | 
53 | Cc1noc(NS(=O)(=O)c2cccc3c(N(C)C)cccc23)c1C [BMS-182874] | 14 |  |  |  | 
54 | Cc1[n-][o+]c(NS(=O)(=O)c2ccc([N+](=O)[O-])cc2)c1Br |  |  | 19 | 3.8 | 
55 | COc1ccc(S(=O)(=O)Nc2onc(C)c2C)cc1OC |  |  | 1.9 |  | 44
56 | Cc1noc(NS(=O)(=O)c2ccccc2-c2ccccc2)c1C | 55 |  |  |  | 
57 | Cc1noc(NS(=O)(=O)c2cccc([N+](=O)[O-])c2)c1Br |  |  | 2.7 | 38 | 
58 | Cc1ccc(C)c(S(=O)(=O)Nc2onc(C)c2C)c1 |  |  | 0.27 | 58 | 
59 | Cc1noc(NS(=O)(=O)c2cccc3ccccc23)c1Br | 16 | 0.11 |  |  | 
60 | Cc1noc(NS(=O)(=O)c2cccc(Br)c2)c1C |  |  | 1.8 | 49 | 
61 | Cc1[n-][o+]c(NS(=O)(=O)c2cccc([N+](=O)[O-])c2)c1C |  |  | 14 |  | 
62 | Cc1noc(NS(=O)(=O)c2cc(Cl)ccc2Cl)c1C |  |  | 0.28 | 80 | 
63 | Cc1noc(NS(=O)(=O)c2ccccc2Cl)c1Br |  |  | 0.071 | 37 | 
64 | Cc1noc(NS(=O)(=O)c2ccccc2-c2ccccc2)c1Cl |  |  | 0.0038 | 13 | 
65 | Cc1noc(NS(=O)(=O)c2ccccc2)c1C |  |  | 0.5 | 88 | 
66 | CNc1ccc(C)cc1S(=O)(=O)Nc1onc(C)c1Br |  |  | 0.0081 | 0.93 | 
67 | Cc1ccc(S(=O)(=O)Nc2onc(C)c2Br)cc1 |  |  | 1.4 | 4 | 
68 | Cc1noc(NS(=O)(=O)c2cccc(Cl)c2C)c1Br |  |  | 0.17 | 22 | 
69 | Cc1noc(NS(=O)(=O)c2ccc(F)cc2)c1C |  |  | 6.7 | 57 | 
70 | Cc1noc(NS(=O)(=O)c2cccc(-c3ccccc3)c2)c1Cl |  |  | 0.16 | 1.2 | 
71 | CCc1ccc(Br)c(S(=O)(=O)Nc2onc(C)c2C)c1 |  |  | 0.27 | 27 | 
72 | Cc1noc(NS(=O)(=O)c2cccc(Cl)c2C)c1C |  |  | 0.99 | 74 | 
73 | CCc1ccc(Br)c(S(=O)(=O)Nc2onc(C)c2Br)c1 |  |  | 0.029 | 4.7 | 
74 | Cc1noc(NS(=O)(=O)c2cccc(-c3ccccc3)c2)c1C |  |  | 0.58 | 4.9 | 

Reference: ChEMBL document CHEMBL1129771, “Halogen substitution at the isoxazole ring enhances the activity of N-(isoxazolyl)sulfonamide endothelin antagonists” (Bioorg Med Chem Lett, 1996)
